Common to all, as to assay: isothermal titration calorimetry
Type in all cases: binding
Details in all cases: read-out: K D (μS)
In general terms: ITC needs no label: the signal is the heat of the interaction.

The target in experiment [1] is T1, EI (EIA, EIA(G356S)) (Escherichia coli, UniProt P08839, G356S/H189A).
T1 construct: gene ptsI; full length 1-575; pET11 or pET15b with N-terminal His6 tag; E. coli BL21star(DE3); dimer with PEP
An excerpt: isothermal titration calorimetry on EI (EIA, EIA(G356S))

Experiment [2] addresses T2, EIC (EIC(G356S)) (Escherichia coli, UniProt P08839, G356S).
T2 construct: gene ptsI; pET11 or pET15b with N-terminal His6 tag; E. coli BL21star(DE3)

In experiment [3] the target is T3, EIA^ΔEINα (G356S) (Escherichia coli, UniProt P08839, DEL22-145/G356S/H189A).
T3 construct: gene ptsI; EI(1-21, 146-575), EINalpha subdomain deleted; pET11 or pET15b with N-terminal His6 tag; E. coli BL21star(DE3)
An excerpt:
isothermal titration calorimetry on EIA^ΔEINα (G356S)

Each structure is given as a SMILES string.

In the case of `C=C(OP(=O)(O)O)C(=O)O` [PEP], the Kd in experiment [1] came out at 14 ± 0.9 µM; in experiment [2], 310 ± 100 µM; in experiment [3], 1.3 ± 0.1 µM.

For the origin of these results see paper PMC5537066, “Dimerization facilitates the conformational transitions for bacterial phosphotransferase enzyme I autophosphorylation in an allosteric manner” (FEBS Open Bio, 2017).
